Laboratory results: PubChem BioAssay AID2060487 (Molecular Pharmacology Branch, DTP, NCI, 2025)

Test system: 997537-175-T-J1-PDC complex spheroid viability
Assay: Anticancer human tumor 997537-175-T-J1-PDC patient-derived colon adenocarcinoma cell line growth inhibition [GQUAD]
Conditions: for IC50: curve of first compound; for viability, T/C: stronger effect = lower value
How it was run: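 Tumor cells were grown as complex spheroids with HUVEC endothelial cells and mesenchymal stem cells as stroma. G-quadruplex stabilizers were combined with targeted agents over half-log dilutions from near the clinical Cmax, or from 10 microM.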

[1] = second compound 0.0316 µM, first compound 0.0316 µM
[2] = second compound 0.0316 µM, first compound 0.316 µM
[3] = second compound 0.1 µM, first compound 0.0316 µM
[4] = second compound 0.1 µM, first compound 0.316 µM
[5] = second compound 0.316 µM, first compound 0.0316 µM
[6] = second compound 0.316 µM, first compound 0.316 µM
[7] = second compound 1 µM, first compound 0.0316 µM
[8] = second compound 1 µM, first compound 0.316 µM
[9] = second compound 3.16 µM, first compound 0.0316 µM
[10] = second compound 3.16 µM, first compound 0.316 µM
[11] = second compound 10 µM, first compound 0.0316 µM
[12] = second compound 10 µM, first compound 0.316 µM
[13] = second compound 0.0316 µM, first compound 0.1 µM
[14] = second compound 0.0316 µM, first compound 1 µM
[15] = second compound 0.0316 µM, first compound 3.16 µM
[16] = second compound 0.0316 µM, first compound 10 µM
[17] = second compound 0.1 µM, first compound 0.1 µM
[18] = second compound 0.1 µM, first compound 1 µM
[19] = second compound 0.1 µM, first compound 3.16 µM
[20] = second compound 0.1 µM, first compound 10 µM
[21] = second compound 0.316 µM, first compound 0.1 µM
[22] = second compound 0.316 µM, first compound 1 µM
[23] = second compound 0.316 µM, first compound 3.16 µM
[24] = second compound 0.316 µM, first compound 10 µM
[25] = second compound 1 µM, first compound 0.1 µM
[26] = second compound 1 µM, first compound 1 µM
[27] = second compound 1 µM, first compound 3.16 µM
[28] = second compound 1 µM, first compound 10 µM
[29] = second compound 3.16 µM, first compound 0.1 µM
[30] = second compound 3.16 µM, first compound 1 µM
[31] = second compound 3.16 µM, first compound 3.16 µM
[32] = second compound 3.16 µM, first compound 10 µM
[33] = second compound 10 µM, first compound 0.1 µM
[34] = second compound 10 µM, first compound 1 µM
[35] = second compound 10 µM, first compound 3.16 µM
[36] = second compound 10 µM, first compound 10 µM
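Note: spheroids exposed to the agents for 7 days.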
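Throughout, for viability, T/C: 100% = DMSO vehicle control viability.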

CC[C@@]1(O)C(=O)OCc2c1cc1n(c2=O)Cc2cc3c(CN(C)C)c(O)ccc3nc2-1 + CN(C)c1ccc(Nc2c3ccc(NC(=O)CCN4CCCC4)cc3nc3cc(NC(=O)CCN4CCCC4)ccc23)cc1
IC50 (second compound 0.0316 µM): > 0.316 µM | IC50 (second compound 0.1 µM): > 0.316 µM | IC50 (second compound 0.316 µM): > 0.316 µM | IC50 (second compound 1 µM): > 0.316 µM | IC50 (second compound 3.16 µM): > 0.316 µM | IC50 (second compound 10 µM): > 0.316 µM | viability, T/C (second compound 0.0316 µM, first compound 0.000999 µM): 90% | viability, T/C (second compound 0.0316 µM, first compound 0.00316 µM): 84.8% | viability, T/C (second compound 0.0316 µM, first compound 0.00999 µM): 86.4% | viability, T/C [1]: 61.1% | viability, T/C (second compound 0.0316 µM, first compound 0.0999 µM): 82.5% | viability, T/C [2]: 64.2% | viability, T/C (second compound 0.1 µM, first compound 0.000999 µM): 99% | viability, T/C (second compound 0.1 µM, first compound 0.00316 µM): 103% | viability, T/C (second compound 0.1 µM, first compound 0.00999 µM): 92.3% | viability, T/C [3]: 86.2% | viability, T/C (second compound 0.1 µM, first compound 0.0999 µM): 76.8% | viability, T/C [4]: 63.3% | viability, T/C (second compound 0.316 µM, first compound 0.000999 µM): 82.3% | viability, T/C (second compound 0.316 µM, first compound 0.00316 µM): 81.9% | viability, T/C (second compound 0.316 µM, first compound 0.00999 µM): 87.3% | viability, T/C [5]: 97.8% | viability, T/C (second compound 0.316 µM, first compound 0.0999 µM): 91.5% | viability, T/C [6]: 69.3% | viability, T/C (second compound 1 µM, first compound 0.000999 µM): 79.3% | viability, T/C (second compound 1 µM, first compound 0.00316 µM): 91.1% | viability, T/C (second compound 1 µM, first compound 0.00999 µM): 108% | viability, T/C [7]: 90.6% | viability, T/C (second compound 1 µM, first compound 0.0999 µM): 96.9% | viability, T/C [8]: 68.9% | viability, T/C (second compound 3.16 µM, first compound 0.000999 µM): 63.8% | viability, T/C (second compound 3.16 µM, first compound 0.00316 µM): 79.7% | viability, T/C (second compound 3.16 µM, first compound 0.00999 µM): 90.4% | viability, T/C [9]: 86.4% | viability, T/C (second compound 3.16 µM, first compound 0.0999 µM): 95.2% | viability, T/C [10]: 65.9% | viability, T/C (second compound 10 µM, first compound 0.000999 µM): 86.3% | viability, T/C (second compound 10 µM, first compound 0.00316 µM): 88.6% | viability, T/C (second compound 10 µM, first compound 0.00999 µM): 98.7% | viability, T/C [11]: 103% | viability, T/C (second compound 10 µM, first compound 0.0999 µM): 99.6% | viability, T/C [12]: 73.3%

CC(C)n1c(=O)n(C)c2cnc3cc(F)c(-c4ccc(OCCCN5CCCCC5)nc4)cc3c21 + Cc1cnc(CNC(=O)c2c(=O)c3ccc(N4CCCN(C)CC4)nc3n3c2sc2ccccc23)cn1
IC50 (second compound 0.0316 µM): > 10 µM | IC50 (second compound 0.1 µM): > 10 µM | IC50 (second compound 0.316 µM): > 10 µM | IC50 (second compound 1 µM): > 10 µM | IC50 (second compound 3.16 µM): > 10 µM | IC50 (second compound 10 µM): > 10 µM | viability, T/C [1]: 112% | viability, T/C [13]: 91.3% | viability, T/C [2]: 104% | viability, T/C [14]: 82.3% | viability, T/C [15]: 91.9% | viability, T/C [16]: 92.5% | viability, T/C [3]: 95% | viability, T/C [17]: 95.9% | viability, T/C [4]: 91.5% | viability, T/C [18]: 82.4% | viability, T/C [19]: 82.6% | viability, T/C [20]: 90.9% | viability, T/C [5]: 101% | viability, T/C [21]: 74% | viability, T/C [6]: 101% | viability, T/C [22]: 84.8% | viability, T/C [23]: 108% | viability, T/C [24]: 93.3% | viability, T/C [7]: 95.6% | viability, T/C [25]: 113% | viability, T/C [8]: 111% | viability, T/C [26]: 80% | viability, T/C [27]: 114% | viability, T/C [28]: 105% | viability, T/C [9]: 87% | viability, T/C [29]: 104% | viability, T/C [10]: 108% | viability, T/C [30]: 105% | viability, T/C [31]: 122% | viability, T/C [32]: 110% | viability, T/C [11]: 87.8% | viability, T/C [33]: 93.4% | viability, T/C [12]: 106% | viability, T/C [34]: 116% | viability, T/C [35]: 98.5% | viability, T/C [36]: 107%

C#Cc1c(F)ccc2cc(O)cc(-c3ncc4c(N5CC6CCC(C5)N6)nc(OCC56CCCN5CC(F)C6)nc4c3F)c12 (stereo not drawn) + CN(C)c1ccc(Nc2c3ccc(NC(=O)CCN4CCCC4)cc3nc3cc(NC(=O)CCN4CCCC4)ccc23)cc1
IC50 (second compound 0.0316 µM): > 10 µM | IC50 (second compound 0.1 µM): > 10 µM | IC50 (second compound 0.316 µM): > 10 µM | IC50 (second compound 1 µM): > 10 µM | IC50 (second compound 3.16 µM): > 10 µM | IC50 (second compound 10 µM): > 10 µM | viability, T/C [1]: 102% | viability, T/C [13]: 97.8% | viability, T/C [2]: 98.9% | viability, T/C [14]: 91.1% | viability, T/C [15]: 87.1% | viability, T/C [16]: 107% | viability, T/C [3]: 97.7% | viability, T/C [17]: 89.4% | viability, T/C [4]: 92.6% | viability, T/C [18]: 65.7% | viability, T/C [19]: 110% | viability, T/C [20]: 106% | viability, T/C [5]: 97.2% | viability, T/C [21]: 104% | viability, T/C [6]: 103% | viability, T/C [22]: 83.4% | viability, T/C [23]: 103% | viability, T/C [24]: 105% | viability, T/C [7]: 89.5% | viability, T/C [25]: 93.3% | viability, T/C [8]: 92% | viability, T/C [26]: 82.9% | viability, T/C [27]: 101% | viability, T/C [28]: 108% | viability, T/C [9]: 69.6% | viability, T/C [29]: 97% | viability, T/C [10]: 103% | viability, T/C [30]: 106% | viability, T/C [31]: 106% | viability, T/C [32]: 124% | viability, T/C [11]: 86.8% | viability, T/C [33]: 101% | viability, T/C [12]: 106% | viability, T/C [34]: 106% | viability, T/C [35]: 114% | viability, T/C [36]: 113%

Cc1cccc(N(C)C(=O)C2C(O)CCN2c2nc(C)cc(C(F)(F)F)c2C#N)c1 (stereo not drawn) + CN(C)c1ccc(Nc2c3ccc(NC(=O)CCN4CCCC4)cc3nc3cc(NC(=O)CCN4CCCC4)ccc23)cc1
IC50 (second compound 0.0316 µM): > 10 µM | IC50 (second compound 0.1 µM): > 10 µM | IC50 (second compound 0.316 µM): > 10 µM | IC50 (second compound 1 µM): > 10 µM | IC50 (second compound 3.16 µM): > 10 µM | IC50 (second compound 10 µM): > 10 µM | viability, T/C [1]: 97.8% | viability, T/C [13]: 101% | viability, T/C [2]: 101% | viability, T/C [14]: 80.2% | viability, T/C [15]: 85.4% | viability, T/C [16]: 105% | viability, T/C [3]: 91.5% | viability, T/C [17]: 85.9% | viability, T/C [4]: 87.7% | viability, T/C [18]: 70.3% | viability, T/C [19]: 103% | viability, T/C [20]: 89.7% | viability, T/C [5]: 83.8% | viability, T/C [21]: 85.7% | viability, T/C [6]: 81.4% | viability, T/C [22]: 77.7% | viability, T/C [23]: 89.2% | viability, T/C [24]: 104% | viability, T/C [7]: 84.9% | viability, T/C [25]: 61.3% | viability, T/C [8]: 83.2% | viability, T/C [26]: 81.2% | viability, T/C [27]: 104% | viability, T/C [28]: 85.3% | viability, T/C [9]: 61.4% | viability, T/C [29]: 91.3% | viability, T/C [10]: 77% | viability, T/C [30]: 93.8% | viability, T/C [31]: 103% | viability, T/C [32]: 103% | viability, T/C [11]: 72.5% | viability, T/C [33]: 83.9% | viability, T/C [12]: 106% | viability, T/C [34]: 88.9% | viability, T/C [35]: 106% | viability, T/C [36]: 103%
